# In US9737073B2, “Herbicidal weed control from combinations of fluroxypyr and ALS inhibitors” (Dow AgroSciences LLC, priority 2014, dated 2017):
# How the values were obtained:
# Type in all cases: in vivo
# [1] = test system: Abutilon theophrasti (velvetleaf, ABUTH); test: Postemergence herbicidal weed control, fluroxypyr-meptyl and chlorimuron-ethyl, field trials (Table 3)
# Procedure: (§1) Seeds of the desired test plant species were planted in a peat-based potting soil, Metro-Mix 360® in plastic pots with a surface area of 128 square centimeters (cm^2). Metro-Mix 360® consists of formulated Canadian sphagnum peat moss, coarse perlite, bark ash, a starter nutrient charge (with gypsum), a slow-release nitrogen and dolomitic limestone. The plants were grown for 7-19 days in a greenhouse with an approximate 14-hour (h) photoperiod which was maintained at about 29° C. during the day and 26° C. during the night. Nutrients and water were added on a regular basis and supplemental lighting was provided with overhead metal halide 1000-Watt lamps as necessary. The plants were treated with postemergence foliar applications when they reached the third to fourth true leaf stage. All treatments were applied using a randomized complete block trial design, with 4 replications per treatment.
# (§2) Treatments consisted of the compounds as listed in Tables 1 to 4, each compound applied alone and in combination. Commercially formulated products of fluroxypyr-meptyl (STARANE™, 333 grams acid equivalent per liter (g ae/L) EC), diclosulam (SPIDER® 84WG), cloransulam-methyl (FIRSTRATE™ 84WG), chlorimuron-ethyl (CLASSIC® 25WG) and thifensulfuron-methyl (HARMONY® 50SG). Formulated amounts of fluroxypyr-meptyl, diclosulam, cloransulam-methyl, chlorimuron-ethyl and thifensulfuron-methyl were placed in 60 milliliter (mL) glass vials and dissolved in a volume of 30 or 60 mL of a water solution containing Agri-dex crop oil concentrate in a 1% volume per volume (v/v) ratio. Compound requirements are based upon either a 30- or a 60-mL application volume at a rate of 200 liters per hectare (L/ha). Spray solutions of the mixtures were prepared by adding the stock solutions to the appropriate amount of dilution solution to form either a 30- or a 60-mL spray solution with active ingredients in single and two-way combinations. Formulated compounds were applied to the plant material with an overhead Generation III Research Sprayer manufactured by DeVries Manufacturing in Hollandale, Minn., USA. The track sprayer was equipped with an 8003E nozzle calibrated to deliver 200 L/ha at a spray height of 18 inches (43 centimeters (cm)) above average plant canopy.
# (§3) The treated plants and untreated control plants were placed in a greenhouse as described above and watered by sub-irrigation to prevent wash-off of the test compounds.
# (§4) Treatments were rated at 7 to 21 days after application (DAA) as compared to the untreated control plants. Visual weed control was scored on a scale of 0 to 100 percent where 0 corresponds to no injury and 100 corresponds to complete kill.
# (§5) Field trials were conducted using standard herbicide small plot research methodology. Plots varied from 3×3.3 meter (m) to 4.5×10 m (width×length) with 4 replicates per treatment. The crops used in the field trials were grown using normal cultural practices for land preparation, fertilization, seeding and maintenance to ensure good growth of the crop and the weeds.
# (§6) All treatments in the field trials were applied using either pressurized air or carbon dioxide (CO2) backpack or bicycle sprayers calibrated to apply 100-187 L/ha spray volume. Flat Fan spray nozzles were used in all trials, with water as the diluent applied at 275-300 kilopascals (kPa). Weed sizes at application ranged from 10 to 40 cm tall. Commercially available products of fluroxypyr-meptyl (STARANE™, 180 and 333 g ae/L EC), diclosulam (SPIDER® 84WG), and thifensulfuron-methyl (HARMONY® 75WG) were mixed in water at appropriately formulated product rates to achieve the desired rates based on a unit area of application (hectare) to achieve the desired rates as shown. No adjuvants were tank-mixed with any treatments applied in the field trials. Treatments were rated at 14-26 days after application as compared to the untreated control plants. […]
# [2] = test system: Amaranthus rudis Sauer (common waterhemp, AMATA); test: as above
# Procedure: as §1, §2, §3, §4, §5, §6
# [3] = test system: Abutilon theophrasti (velvetleaf, ABUTH); test: Postemergence herbicidal weed control, fluroxypyr-meptyl and cloransulam-methyl, field trials (Table 2)
# Procedure: as §1, §2, §3, §4, §5, §6
# [4] = test system: Amaranthus rudis Sauer (common waterhemp, AMATA); test: as above
# Procedure: as §1, §2, §3, §4, §5, §6
# [5] = test system: Chenopodium album (common lambsquarters, CHEAL); test: as above
# Procedure: as §1, §2, §3, §4, §5
# as §6, with “[…] Visual weed control was scored on a scale of 0” for “Treatments were rated at 14-26 days after application as compared”, “100 percent where 0 corresponds to no injury and 100 corresponds to complete kill.” for “the untreated control plants.”
# [6] = test system: Abutilon theophrasti (velvetleaf, ABUTH); test: Postemergence herbicidal weed control, fluroxypyr-meptyl and diclosulam, greenhouse trials (Table 1)
# Procedure: as §1, §2, §3, §4
# (§7) Colby's equation was used to determine the herbicidal effects expected from the mixtures (Colby, S. R. Calculation of the synergistic and antagonistic response of herbicide combinations. Weeds 196715, 20-22). A t-test (alpha=0.05) between Colby predictions and observed combinations was used to test for significant differences indicating synergy or antagonism. The results presented in the Tables were significant according to the described criteria.
# (§8) The following equation was used to calculate the expected activity of mixtures containing two active ingredients, A and B: Expected=A+B−(A×B/100) • A=observed efficacy of active ingredient A at the same concentration as used in the mixture; • B=observed efficacy of active ingredient B at the same concentration as used in the mixture.
# [7] = test system: Amaranthus rudis Sauer (common waterhemp, AMATA); test: as above
# Procedure: as §1, §2, §3, §4, §7, §8
# [8] = test system: Chenopodium album (common lambsquarters, CHEAL); test: as above
# Procedure: as §1, §2, §3, §4, §7, §8
# [9] = test system: Commelina benghalensis (tropical spiderwort, COMBE); test: as above
# Procedure: as §5
# (§9) All treatments in the field trials were applied using either pressurized air or carbon dioxide (CO2) backpack or bicycle sprayers calibrated to apply 100-187 L/ha spray volume. Flat Fan spray nozzles were used in all trials, with water as the diluent applied at 275-300 kilopascals (kPa). Weed sizes at application ranged from 10 to 40 cm tall. Commercially available products of fluroxypyr-meptyl (STARANE™, 180 and 333 g ae/L EC), diclosulam (SPIDER® 84WG), and thifensulfuron-methyl (HARMONY® 75WG) were mixed in water at appropriately formulated product rates to achieve the desired rates based on a unit area of application (hectare) to achieve the desired rates as shown. No adjuvants were tank-mixed with any treatments applied in the field trials. Treatments were rated at 14-26 days after application as compared to the untreated control plants. Visual weed control was scored on a scale of 0 to 100 percent where 0 corresponds to no injury and 100 corresponds to complete kill.
# (§10) The treated plots and control plots were rated blind at various intervals after application. Ratings were reported on a Percent (%) Visual Control basis, where 0 corresponds to no visual effect/weed control and 100 corresponds to complete kill of the target weeds.
# as §7, §8
# [10] = test system: Sida cordifolia L. (heartleaf sida, SIDCO); test: as above; conditions: 14DAA1, 25.2 g ai/ha
# Procedure: as §1
# Treatments consisted of the compounds as listed in Tables 1 to 4, each compound applied alone and in combination. […]
# Treatments were rated at 7 to 21 days after application (DAA) as compared to the untreated control plants. Visual weed control was scored on a scale of 0 to 100 percent where 0 corresponds to no injury and 100 corresponds to complete kill. […]
# [11] = test system: Amaranthus retroflexus L. (redroot pigweed, AMARE); test: Postemergence herbicidal weed control, fluroxypyr-meptyl and thifensulfuron-methyl, field trials (Table 4); conditions: 21DAA1, 13.0 g ai/ha
# Procedure: as §5, §9, §10, §7, §8
# [12] = test system: Chenopodium album (common lambsquarters, CHEAL); test: as above; conditions: 21DAA1, 13.0 g ai/ha
# Procedure: as §5, §9, §10, §7, §8
# [13] = test system: Polygonum convolvulus L. (wild buckwheat, POLCO); test: as above; conditions: 21DAA1, 13.0 g ai/ha
# Procedure: as §5, §9, §10, §7, §8
# [14] = test system: Abutilon theophrasti (velvetleaf, ABUTH); test: as above
# Procedure: as §1, §2, §3, §4, §5
# (§11) All treatments in the field trials were applied using either pressurized air or carbon dioxide (CO2) backpack or bicycle sprayers calibrated to apply 100-187 L/ha spray volume. Flat Fan spray nozzles were used in all trials, with water as the diluent applied at 275-300 kilopascals (kPa). Weed sizes at application ranged from 10 to 40 cm tall. […]
# [15] = test system: Amaranthus palmeri S. Wats. (Palmer amaranth, AMAPA); test: as above; conditions: 7DAA1, 2.2 g ai/ha
# Procedure: as §1, §2, §3, §4, §5, §11
smiles,measurement,setting,value
"CCOC(=O)c1ccccc1S(=O)(=O)NC(=O)Nc1nc(Cl)cc(OC)n1 [Chlorimuron-ethyl, ethyl 2-[[[[(4-chloro-6-methoxy-2-pyrimidinyl)amino]carbonyl]amino]-sulfonyl]benzoate]",Chlorimuron-ethyl Mean % weed control,"[1]; 14DAA1, 1.1 g ai/ha",56.3%
same,Chlorimuron-ethyl Mean % weed control,"[1]; 14DAA1, 2.2 g ai/ha",62.5%
same,Chlorimuron-ethyl Mean % weed control,"[2]; 7DAA1, 8.8 g ai/ha",41.3%
same,Chlorimuron-ethyl Mean % weed control,"[2]; 14DAA1, 8.8 g ai/ha",28.8%
"CCOc1nc(F)cc2nc(S(=O)(=O)Nc3c(Cl)cccc3C(=O)OC)nn12 [Cloransulam-methyl, methyl 3-chloro-2-[[(5-ethoxy-7-fluoro[1,2,4]triazolo[1,5-c]pyrimidin-2-yl)sulfonyl]amino]benzoate]",Cloransulam-methyl Mean % weed control,"[3]; 14DAA1, 1.1 g ai/ha",38.3%
same,Cloransulam-methyl Mean % weed control,"[3]; 14DAA1, 4.4 g ai/ha",70.0%
same,Cloransulam-methyl Mean % weed control,"[3]; 21DAA1, 1.1 g ai/ha",40.0%
same,Cloransulam-methyl Mean % weed control,"[3]; 21DAA1, 4.4 g ai/ha",70.0%
same,Cloransulam-methyl Mean % weed control,"[4]; 8DAA1, 4.4 g ai/ha",58.8%
same,Cloransulam-methyl Mean % weed control,"[4]; 14DAA1, 4.4 g ai/ha",38.8%
same,Cloransulam-methyl Mean % weed control,"[4]; 21DAA1, 4.4 g ai/ha",37.5%
same,Cloransulam-methyl Mean % weed control,"[5]; 8DAA1, 4.4 g ai/ha",35.0%
same,Cloransulam-methyl Mean % weed control,"[5]; 14DAA1, 1.1 g ai/ha",16.7%
same,Cloransulam-methyl Mean % weed control,"[5]; 14DAA1, 4.4 g ai/ha",11.7%
same,Cloransulam-methyl Mean % weed control,"[5]; 21DAA1, 1.1 g ai/ha",8.3%
same,Cloransulam-methyl Mean % weed control,"[5]; 21DAA1, 4.4 g ai/ha",11.0%
same,Cloransulam-methyl Mean % weed control,"[5]; 21DAA1, 8.8 g ai/ha",10.0%
"CCOc1nc(F)cc2nc(S(=O)(=O)Nc3c(Cl)cccc3Cl)nn12 [Diclosulam, N-(2,6-dichlorophenyl)-5-ethoxy-7-fluoro[1,2,4]triazolo[1,5-c]pyrimidine-2-sulfonamide]",Diclosulam Mean % weed control,"[6]; 14DAA1, 1.1 g ai/ha",28.8%
same,Diclosulam Mean % weed control,"[6]; 21DAA1, 1.1 g ai/ha",30.0%
same,Diclosulam Mean % weed control,"[7]; 8DAA1, 8.8 g ai/ha",51.3%
same,Diclosulam Mean % weed control,"[7]; 14DAA1, 4.4 g ai/ha",28.8%
same,Diclosulam Mean % weed control,"[7]; 14DAA1, 8.8 g ai/ha",27.5%
same,Diclosulam Mean % weed control,"[7]; 21DAA1, 4.4 g ai/ha",25.0%
same,Diclosulam Mean % weed control,"[7]; 21DAA1, 8.8 g ai/ha",28.8%
same,Diclosulam Mean % weed control,"[8]; 8DAA1, 8.8 g ai/ha",38.3%
same,Diclosulam Mean % weed control,"[8]; 14DAA1, 2.2 g ai/ha",3.3%
same,Diclosulam Mean % weed control,"[8]; 14DAA1, 8.8 g ai/ha",21.7%
same,Diclosulam Mean % weed control,"[8]; 21DAA1, 2.2 g ai/ha",5.0%
same,Diclosulam Mean % weed control,"[8]; 21DAA1, 4.4 g ai/ha",16.7%
same,Diclosulam Mean % weed control,"[8]; 21DAA1, 8.8 g ai/ha",31.7%
same,Diclosulam Mean % weed control,"[9]; 14DAA1, 25.2 g ai/ha",41.3%
same,Diclosulam Mean % weed control,"[9]; 26DAA1, 25.2 g ai/ha",17.5%
same,Diclosulam Mean % weed control,[10],23.3%
"COC(=O)c1sccc1S(=O)(=O)NC(=O)Nc1nc(C)nc(OC)n1 [Thifensulfuron-methyl, methyl 3-[[[[(4-methoxy-6-methyl-1,3,5-triazin-2-yl)amino]carbonyl]amino]sulfonyl]-2-thiophenecarboxylate]",Thifensulfuron-methyl Mean % weed control,[11],90.0%
same,Thifensulfuron-methyl Mean % weed control,[12],90.0%
same,Thifensulfuron-methyl Mean % weed control,[13],90.0%
same,Thifensulfuron-methyl Mean % weed control,"[14]; 14DAA1, 0.6 g ai/ha",56.3%
same,Thifensulfuron-methyl Mean % weed control,"[14]; 14DAA1, 1.1 g ai/ha",73.8%
same,Thifensulfuron-methyl Mean % weed control,[15],22.5%
